Assay results reported in patent publication US9611249B2, “1H-indazole-3-carboxamide compounds as glycogen synthase kinase 3 beta inhibitors” (AZIENDE CHIMICHE RIUNITE ANGELINI FRANCESCO A.C.R.A.F. …, priority 2012, dated 2017).

Columns and labels:
GSK3beta (h) = GSK3beta (h) (Homo sapiens (Human), UniProt P49841); test: Kinase selectivity panel: GSK3beta (h); assay type: biochemical; settings: GSK3beta (h); 10 μM in duplicate; read-out: % inhibition of control values
Description: (§1) (a) Compounds 1 and 2 were tested against a panel of 60 kinases in order to assess their selectivity. The assays were chosen taking into consideration the diversity of assay families.
(§2) Tested kinases were representative of following kinase sub-families: • protein-serine/threonine kinases; • protein-tyrosine kinases; • other kinases; and • atypical kinases.
(§3) Human recombinant kinases were incubated in the presence of specific peptide substrates plus ATP for different times (10, 15, 30, 60 or 90 minutes) at 22° C. Phosphorylated substrate was detected by LANCE or HTRF technology (CISBIO, MA, USA). The compounds were tested at 10 μM in duplicate.
(§4) The results are expressed as a percentage of inhibition of control specific activity obtained in the presence of the test compounds and are reported in the following Table 5.
(§5) The results are expressed as a percent of inhibition of control specific activity obtained in the presence of the test compounds and are reported in the following Table 6.

DCAMKL1 (h) = DCAMKL1 (h) (Homo sapiens (Human), UniProt O15075); test: Kinase selectivity panel: DCAMKL1 (h); assay type: biochemical; settings: 10 μM in duplicate, read-out: % inhibition of control values
Description: as §1, §2, §3, §4
(§6) (b) Compounds 3, 8, 29 and 31 were tested against the same panel of 60 kinases under the same conditions described above for compounds 1 and 2.
as §5

TRKA (h) = TRKA (h) (Homo sapiens (Human), UniProt P04629); test: Kinase selectivity panel: TRKA (h); assay type: biochemical; settings: 10 μM in duplicate, read-out: % inhibition of control values
Description: as §1, §2, §3, §4, §6, §5

EphB4 kinase (h) = EphB4 kinase (h) (Homo sapiens (Human), UniProt P54760); test: Kinase selectivity panel: EphB4 kinase (h); assay type: biochemical; settings: 10 μM in duplicate, read-out: % inhibition of control values
Description: as §1, §2, §3, §4, §6, §5

NEK7 (h) = NEK7 (h) (Homo sapiens (Human), UniProt Q8TDX7); test: Kinase selectivity panel: NEK7 (h); assay type: biochemical; settings: 10 μM in duplicate, read-out: % inhibition of control values
Description: as §1, §2, §3, §4, §6, §5

IKKepsilon (h) (IKBKE) = IKKepsilon (h) (IKBKE) (Homo sapiens (Human), UniProt Q14164); test: Kinase selectivity panel: IKKepsilon (h) (IKBKE); assay type: biochemical; settings: 10 μM in duplicate, read-out: % inhibition of control values
Description: as §1, §2, §3, §4, §6, §5

MAPKAPK2 (h) = MAPKAPK2 (h) (Homo sapiens (Human), UniProt P49137); test: Kinase selectivity panel: MAPKAPK2 (h); assay type: biochemical; settings: 10 μM in duplicate, read-out: % inhibition of control values
Description: as §1, §2, §3, §4, §6, §5

DLK1 (h) (MAP3K12) = DLK1 (h) (MAP3K12) (Homo sapiens (Human), UniProt Q12852); test: Kinase selectivity panel: DLK1 (h) (MAP3K12); assay type: biochemical; settings: 10 μM in duplicate, read-out: % inhibition of control values
Description: as §1, §2, §3, §4, §6, §5

RSK2 (h) = RSK2 (h) (Homo sapiens (Human), UniProt P51812); test: Kinase selectivity panel: RSK2 (h); assay type: biochemical; settings: 10 μM in duplicate, read-out: % inhibition of control values
Description: as §1, §2, §3, §4, §6, §5

p38delta kinase (h) = p38delta kinase (h) (Homo sapiens (Human), UniProt O15264); test: Kinase selectivity panel: p38delta kinase (h); assay type: biochemical; settings: 10 μM in duplicate, read-out: % inhibition of control values
Description: as §1, §2, §3, §4, §6, §5

Akt1/PKBalpha (h) = Akt1/PKBalpha (h) (Homo sapiens (Human), UniProt P31749); test: Kinase selectivity panel: Akt1/PKBalpha (h); assay type: biochemical; settings: 10 μM in duplicate, read-out: % inhibition of control values
Description: as §1, §2, §3, §4, §6, §5

PKCbeta 1 (h) = PKCbeta 1 (h) (Homo sapiens (Human), UniProt P05771); test: Kinase selectivity panel: PKCbeta 1 (h); assay type: biochemical; settings: 10 μM in duplicate, read-out: % inhibition of control values
Sequence of PKCbeta 1 (h) (P05771 whole entry): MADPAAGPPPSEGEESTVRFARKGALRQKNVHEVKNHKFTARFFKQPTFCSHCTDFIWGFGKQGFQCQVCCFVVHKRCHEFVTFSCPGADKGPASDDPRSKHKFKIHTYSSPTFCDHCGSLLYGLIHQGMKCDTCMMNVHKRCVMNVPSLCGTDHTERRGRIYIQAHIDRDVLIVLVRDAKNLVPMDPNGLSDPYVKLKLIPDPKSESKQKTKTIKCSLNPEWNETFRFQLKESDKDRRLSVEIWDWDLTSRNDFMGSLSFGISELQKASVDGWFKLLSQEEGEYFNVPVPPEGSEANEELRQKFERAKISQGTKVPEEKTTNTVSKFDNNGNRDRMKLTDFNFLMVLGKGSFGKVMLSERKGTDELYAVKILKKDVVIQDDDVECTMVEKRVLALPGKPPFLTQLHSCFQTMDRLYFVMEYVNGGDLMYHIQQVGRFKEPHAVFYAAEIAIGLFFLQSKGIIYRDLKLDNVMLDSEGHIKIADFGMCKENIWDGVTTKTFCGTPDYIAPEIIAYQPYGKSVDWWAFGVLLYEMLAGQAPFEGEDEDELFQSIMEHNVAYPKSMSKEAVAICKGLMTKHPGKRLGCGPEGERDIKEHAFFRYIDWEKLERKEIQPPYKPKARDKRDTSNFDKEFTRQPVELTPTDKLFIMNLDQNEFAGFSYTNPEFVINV
Description: as §1, §2, §3, §4, §6, §5

MNK2 (h) = MNK2 (h) (Homo sapiens (Human), UniProt Q9HBH9); test: Kinase selectivity panel: MNK2 (h); assay type: biochemical; settings: 10 μM in duplicate, read-out: % inhibition of control values
Description: as §1, §2, §3, §4, §6, §5

CDK5/p35 (h) = CDK5/p35 (h) (Homo sapiens (Human), UniProt Q00535); test: Kinase selectivity panel: CDK5/p35 (h); assay type: biochemical; settings: 10 μM in duplicate, read-out: % inhibition of control values
Description: as §1, §2, §3, §4, §6, §5

IRAK4 (h) = IRAK4 (h) (Homo sapiens (Human), UniProt Q9NWZ3); test: Kinase selectivity panel: IRAK4 (h); assay type: biochemical; settings: 10 μM in duplicate, read-out: % inhibition of control values
Description: as §1, §2, §3, §4, §6, §5

PCTAIRE1 kinase (h) = PCTAIRE1 kinase (h) (Homo sapiens (Human), UniProt Q00536); test: Kinase selectivity panel: PCTAIRE1 kinase (h); assay type: biochemical; settings: 10 μM in duplicate, read-out: % inhibition of control values
Description: as §1, §2, §3, §4, §6, §5

PAK1 (h) = PAK1 (h) (Homo sapiens (Human), UniProt Q13153); test: Kinase selectivity panel: PAK1 (h); assay type: biochemical; settings: 10 μM in duplicate, read-out: % inhibition of control values
Description: as §1, §2, §3, §4, §6, §5

EphB2 kinase (h) = EphB2 kinase (h) (Homo sapiens (Human), UniProt P29323); test: Kinase selectivity panel: EphB2 kinase (h); assay type: biochemical; settings: 10 μM in duplicate, read-out: % inhibition of control values
Sequence of EphB2 kinase (h) (P29323 19-1055): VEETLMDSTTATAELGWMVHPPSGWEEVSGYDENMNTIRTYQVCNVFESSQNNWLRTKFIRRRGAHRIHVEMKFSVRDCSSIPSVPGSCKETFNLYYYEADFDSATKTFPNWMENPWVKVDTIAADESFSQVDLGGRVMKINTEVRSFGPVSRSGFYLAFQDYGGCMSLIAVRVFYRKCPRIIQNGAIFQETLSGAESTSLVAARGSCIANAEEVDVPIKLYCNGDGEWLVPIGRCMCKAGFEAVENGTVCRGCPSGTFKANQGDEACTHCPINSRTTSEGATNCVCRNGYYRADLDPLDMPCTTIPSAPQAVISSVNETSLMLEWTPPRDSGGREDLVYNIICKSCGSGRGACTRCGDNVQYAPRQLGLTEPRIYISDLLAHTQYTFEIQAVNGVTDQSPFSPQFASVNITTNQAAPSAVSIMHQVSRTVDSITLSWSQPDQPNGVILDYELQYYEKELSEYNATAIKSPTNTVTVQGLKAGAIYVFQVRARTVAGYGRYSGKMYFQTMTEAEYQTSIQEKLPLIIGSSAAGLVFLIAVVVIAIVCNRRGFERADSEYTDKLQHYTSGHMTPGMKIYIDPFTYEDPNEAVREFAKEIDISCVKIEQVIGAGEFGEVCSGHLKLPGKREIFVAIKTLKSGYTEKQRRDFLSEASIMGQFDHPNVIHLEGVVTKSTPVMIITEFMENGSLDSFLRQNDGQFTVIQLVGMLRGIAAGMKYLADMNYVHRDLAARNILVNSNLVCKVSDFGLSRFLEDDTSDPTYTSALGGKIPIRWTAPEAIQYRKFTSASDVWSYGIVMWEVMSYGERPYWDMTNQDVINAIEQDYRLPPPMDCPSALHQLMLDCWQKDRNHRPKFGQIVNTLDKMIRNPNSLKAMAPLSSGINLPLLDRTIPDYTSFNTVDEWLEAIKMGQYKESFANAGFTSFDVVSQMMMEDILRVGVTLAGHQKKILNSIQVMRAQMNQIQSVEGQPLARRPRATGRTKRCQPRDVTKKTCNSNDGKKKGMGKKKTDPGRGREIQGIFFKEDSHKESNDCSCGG
Description: as §1, §2, §3, §4, §6, §5

Fyn kinase (h) = Fyn kinase (h) (Homo sapiens (Human), UniProt P06241); test: Kinase selectivity panel: Fyn kinase (h); assay type: biochemical; settings: 10 μM in duplicate, read-out: % inhibition of control values
Description: as §1, §2, §3, §4, §6, §5

CDK2 (h) (cycA) = CDK2 (h) (cycA) (Homo sapiens (Human), UniProt P24941); test: Kinase selectivity panel: CDK2 (h) (cycA); assay type: biochemical; settings: 10 μM in duplicate, read-out: % inhibition of control values
Description: as §1, §2, §3, §4, §6, §5

DAPK1 (h) = DAPK1 (h) (Homo sapiens (Human), UniProt P53355); test: Kinase selectivity panel: DAPK1 (h); assay type: biochemical; settings: 10 μM in duplicate, read-out: % inhibition of control values
Sequence of DAPK1 (h) (P53355 whole entry): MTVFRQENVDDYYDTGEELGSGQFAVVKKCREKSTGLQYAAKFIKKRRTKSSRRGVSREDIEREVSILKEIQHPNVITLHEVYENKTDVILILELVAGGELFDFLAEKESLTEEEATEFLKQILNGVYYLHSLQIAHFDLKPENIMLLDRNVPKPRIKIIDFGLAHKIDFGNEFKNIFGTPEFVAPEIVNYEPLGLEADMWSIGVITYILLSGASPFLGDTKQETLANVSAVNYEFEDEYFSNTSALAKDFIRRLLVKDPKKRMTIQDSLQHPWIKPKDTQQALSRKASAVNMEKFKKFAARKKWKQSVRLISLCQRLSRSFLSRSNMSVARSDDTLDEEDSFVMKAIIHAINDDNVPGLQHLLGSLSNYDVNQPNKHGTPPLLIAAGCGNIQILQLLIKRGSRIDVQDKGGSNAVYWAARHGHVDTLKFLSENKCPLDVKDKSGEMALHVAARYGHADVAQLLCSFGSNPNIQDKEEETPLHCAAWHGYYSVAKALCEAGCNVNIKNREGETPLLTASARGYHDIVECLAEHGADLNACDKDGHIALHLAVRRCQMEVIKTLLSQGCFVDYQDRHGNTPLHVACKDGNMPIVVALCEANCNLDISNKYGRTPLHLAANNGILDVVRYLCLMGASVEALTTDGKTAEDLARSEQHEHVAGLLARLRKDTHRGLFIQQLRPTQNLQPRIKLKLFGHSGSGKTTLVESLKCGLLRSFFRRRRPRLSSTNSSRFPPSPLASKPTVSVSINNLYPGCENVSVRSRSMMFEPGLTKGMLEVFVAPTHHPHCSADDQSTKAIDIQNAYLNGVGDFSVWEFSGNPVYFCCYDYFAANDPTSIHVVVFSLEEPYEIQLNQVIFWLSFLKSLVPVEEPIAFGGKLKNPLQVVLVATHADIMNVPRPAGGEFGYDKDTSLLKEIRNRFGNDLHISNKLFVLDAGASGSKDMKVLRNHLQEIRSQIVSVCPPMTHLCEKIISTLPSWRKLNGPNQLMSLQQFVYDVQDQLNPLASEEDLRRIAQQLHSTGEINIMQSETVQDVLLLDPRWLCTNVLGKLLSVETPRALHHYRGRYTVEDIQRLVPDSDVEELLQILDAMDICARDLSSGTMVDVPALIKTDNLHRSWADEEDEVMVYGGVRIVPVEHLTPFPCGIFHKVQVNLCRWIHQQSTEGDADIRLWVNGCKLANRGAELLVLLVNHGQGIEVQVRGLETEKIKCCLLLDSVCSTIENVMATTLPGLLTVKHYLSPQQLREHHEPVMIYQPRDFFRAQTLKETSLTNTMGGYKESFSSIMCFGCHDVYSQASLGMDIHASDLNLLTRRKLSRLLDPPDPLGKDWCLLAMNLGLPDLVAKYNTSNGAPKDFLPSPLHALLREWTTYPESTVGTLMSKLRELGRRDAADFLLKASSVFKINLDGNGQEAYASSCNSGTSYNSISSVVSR
Description: as §1, §2, §3, §4, §6, §5

FGFR1 kinase (h) = FGFR1 kinase (h) (Homo sapiens (Human), UniProt P11362); test: Kinase selectivity panel: FGFR1 kinase (h); assay type: biochemical; settings: 10 μM in duplicate, read-out: % inhibition of control values
Description: as §1, §2, §3, §4, §6, §5

Abl kinase (h) = Abl kinase (h) (Homo sapiens (Human), UniProt P00519); test: Kinase selectivity panel: Abl kinase (h); assay type: biochemical; settings: 10 μM in duplicate, read-out: % inhibition of control values
Description: as §1, §2, §3, §4, §6, §5

IGF1R kinase (h) = IGF1R kinase (h) (Homo sapiens (Human), UniProt P08069); test: Kinase selectivity panel: IGF1R kinase (h); assay type: biochemical; settings: 10 μM in duplicate, read-out: % inhibition of control values
Description: as §1, §2, §3, §4, §6, §5

PKA (h) = PKA (h) (Homo sapiens (Human), UniProt P17612); test: Kinase selectivity panel: PKA (h); assay type: biochemical; settings: 10 μM in duplicate, read-out: % inhibition of control values
Description: as §1, §2, §3, §4, §6, §5

IKKalpha (h) = IKKalpha (h) (Homo sapiens (Human), UniProt O15111); test: Kinase selectivity panel: IKKalpha (h); assay type: biochemical; settings: 10 μM in duplicate, read-out: % inhibition of control values
Sequence of IKKalpha (h) (O15111 whole entry): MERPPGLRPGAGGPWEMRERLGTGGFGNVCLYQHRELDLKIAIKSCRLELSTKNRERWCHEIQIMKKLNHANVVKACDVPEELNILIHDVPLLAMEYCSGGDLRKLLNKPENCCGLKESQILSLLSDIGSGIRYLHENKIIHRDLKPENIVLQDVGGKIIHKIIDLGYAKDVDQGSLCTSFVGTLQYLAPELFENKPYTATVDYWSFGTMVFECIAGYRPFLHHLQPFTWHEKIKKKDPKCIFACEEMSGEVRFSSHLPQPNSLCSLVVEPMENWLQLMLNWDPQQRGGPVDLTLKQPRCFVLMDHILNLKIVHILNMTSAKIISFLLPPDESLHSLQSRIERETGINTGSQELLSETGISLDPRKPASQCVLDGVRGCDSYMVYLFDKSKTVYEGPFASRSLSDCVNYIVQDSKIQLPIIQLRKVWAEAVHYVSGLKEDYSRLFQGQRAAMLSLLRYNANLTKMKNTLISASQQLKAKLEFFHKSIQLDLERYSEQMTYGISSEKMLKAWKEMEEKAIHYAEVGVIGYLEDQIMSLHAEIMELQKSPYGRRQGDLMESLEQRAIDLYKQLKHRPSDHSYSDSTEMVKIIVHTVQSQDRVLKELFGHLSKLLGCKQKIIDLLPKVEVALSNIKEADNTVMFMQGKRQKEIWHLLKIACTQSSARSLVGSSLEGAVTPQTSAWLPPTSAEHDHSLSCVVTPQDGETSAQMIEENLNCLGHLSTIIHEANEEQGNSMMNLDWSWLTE
Description: as §1, §2, §3, §4, §6, §5

IRK (h) (InsR) = IRK (h) (InsR) (Homo sapiens (Human), UniProt P06213); test: Kinase selectivity panel: IRK (h) (InsR); assay type: biochemical; settings: 10 μM in duplicate, read-out: % inhibition of control values
Description: as §1, §2, §3, §4, §6, §5

ERK1 (h) = ERK1 (h) (Homo sapiens (Human), UniProt P27361); test: Kinase selectivity panel: ERK1 (h); assay type: biochemical; settings: 10 μM in duplicate, read-out: % inhibition of control values
Sequence of ERK1 (h) (P27361 whole entry): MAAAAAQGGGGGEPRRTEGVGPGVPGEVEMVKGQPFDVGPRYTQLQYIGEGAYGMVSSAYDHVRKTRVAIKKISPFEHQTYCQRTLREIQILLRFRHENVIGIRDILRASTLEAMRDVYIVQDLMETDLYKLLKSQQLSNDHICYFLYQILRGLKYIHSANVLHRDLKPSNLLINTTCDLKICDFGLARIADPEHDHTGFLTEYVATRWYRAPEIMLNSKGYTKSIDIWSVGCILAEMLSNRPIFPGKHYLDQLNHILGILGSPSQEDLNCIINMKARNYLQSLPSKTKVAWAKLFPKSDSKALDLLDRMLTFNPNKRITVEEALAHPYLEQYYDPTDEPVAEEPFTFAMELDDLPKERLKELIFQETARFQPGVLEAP
Description: as §1, §2, §3, §4, §6, §5

CK1alpha (h) = CK1alpha (h) (Homo sapiens (Human), UniProt P48729); test: Kinase selectivity panel: CK1alpha (h); assay type: biochemical; settings: 10 μM in duplicate, read-out: % inhibition of control values
Sequence of CK1alpha (h) (P48729 whole entry): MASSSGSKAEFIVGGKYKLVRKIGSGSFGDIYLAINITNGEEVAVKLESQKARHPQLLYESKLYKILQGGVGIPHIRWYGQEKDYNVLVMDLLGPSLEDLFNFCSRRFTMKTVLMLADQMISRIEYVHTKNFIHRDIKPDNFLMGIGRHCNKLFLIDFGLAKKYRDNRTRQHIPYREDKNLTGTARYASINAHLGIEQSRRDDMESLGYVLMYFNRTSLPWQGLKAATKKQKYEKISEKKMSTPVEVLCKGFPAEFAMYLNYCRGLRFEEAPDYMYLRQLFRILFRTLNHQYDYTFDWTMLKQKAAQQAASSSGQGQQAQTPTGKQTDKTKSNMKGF
Description: as §1, §2, §3, §4, §6, §5

CaMK4 (h) = CaMK4 (h) (Homo sapiens (Human), UniProt Q16566); test: Kinase selectivity panel: CaMK4 (h); assay type: biochemical; settings: 10 μM in duplicate, read-out: % inhibition of control values
Description: as §1, §2, §3, §4, §6, §5

Ret kinase (h) = Ret kinase (h) (Homo sapiens (Human), UniProt P07949); test: Kinase selectivity panel: Ret kinase (h); assay type: biochemical; settings: 10 μM in duplicate, read-out: % inhibition of control values
Description: as §1, §2, §3, §4, §6, §5

p38alpha kinase (h) = p38alpha kinase (h) (Homo sapiens (Human), UniProt Q16539); test: Kinase selectivity panel: p38alpha kinase (h); assay type: biochemical; settings: 10 μM in duplicate, read-out: % inhibition of control values
Description: as §1, §2, §3, §4, §6, §5

CHK1 (h) = CHK1 (h) (Homo sapiens (Human), UniProt O14757); test: Kinase selectivity panel: CHK1 (h); assay type: biochemical; settings: 10 μM in duplicate, read-out: % inhibition of control values
Sequence of CHK1 (h) (O14757 whole entry): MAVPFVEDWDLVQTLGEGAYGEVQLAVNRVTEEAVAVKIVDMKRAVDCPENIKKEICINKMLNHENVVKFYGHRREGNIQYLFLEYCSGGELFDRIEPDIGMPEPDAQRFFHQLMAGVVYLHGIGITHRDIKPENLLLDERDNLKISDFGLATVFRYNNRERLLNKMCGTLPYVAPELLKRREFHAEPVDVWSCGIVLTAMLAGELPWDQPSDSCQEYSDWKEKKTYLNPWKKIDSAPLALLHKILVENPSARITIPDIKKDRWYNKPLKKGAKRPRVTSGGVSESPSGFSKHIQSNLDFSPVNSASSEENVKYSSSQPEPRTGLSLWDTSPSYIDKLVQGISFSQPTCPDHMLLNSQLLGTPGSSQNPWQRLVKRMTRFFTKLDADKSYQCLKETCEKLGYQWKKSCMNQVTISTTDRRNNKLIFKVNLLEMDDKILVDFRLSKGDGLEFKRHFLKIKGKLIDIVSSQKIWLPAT
Description: as §1, §2, §3, §4, §6, §5

AMPKalpha = test: Kinase selectivity panel: AMPKalpha; assay type: biochemical, human; settings: 10 μM in duplicate
Description: as §1, §2, §3, §4, §6, §5

Row | inhibition at 10 µM (DCAMKL1 (h)) [%] | inhibition at 10 µM (TRKA (h)) [%] | inhibition at 10 µM (EphB4 kinase (h)) [%] | inhibition at 10 µM (NEK7 (h)) [%] | inhibition at 10 µM (IKKepsilon (h) (IKBKE)) [%] | inhibition at 10 µM (MAPKAPK2 (h)) [%] | inhibition at 10 µM (DLK1 (h) (MAP3K12)) [%] | inhibition at 10 µM (RSK2 (h)) [%] | inhibition at 10 µM (p38delta kinase (h)) [%] | inhibition at 10 µM (Akt1/PKBalpha (h)) [%] | inhibition at 10 µM (PKCbeta 1 (h)) [%] | inhibition at 10 µM (MNK2 (h)) [%] | inhibition at 10 µM (CDK5/p35 (h)) [%] | inhibition at 10 µM (IRAK4 (h)) [%] | inhibition at 10 µM (PCTAIRE1 kinase (h)) [%] | inhibition at 10 µM (PAK1 (h)) [%] | inhibition at 10 µM (EphB2 kinase (h)) [%] | inhibition at 10 µM (Fyn kinase (h)) [%] | inhibition at 10 µM (CDK2 (h) (cycA)) [%] | inhibition at 10 µM (DAPK1 (h)) [%] | further results | SMILES
1 | 0 | 0 | 0 | 2 | 0 | 0 | 0 | 4 | 0 | 0 | 0 | 3 | 9 | 0 | 0 | 0 | 0 | 0 | 21 | 3 | inhibition at 10 µM (GSK3beta (h)): 89%; inhibition at 10 µM (FGFR1 kinase (h)): 0%; inhibition at 10 µM (Abl kinase (h)): 0%; inhibition at 10 µM (IGF1R kinase (h)): 0%; inhibition at 10 µM (PKA (h)): 0%; inhibition at 10 µM (IKKalpha (h)): 0%; inhibition at 10 µM (IRK (h) (InsR)): 0%; inhibition at 10 µM (ERK1 (h)): 19%; inhibition at 10 µM (CK1alpha (h)): 0%; inhibition at 10 µM (CaMK4 (h)): 15%; inhibition at 10 µM (Ret kinase (h)): 0%; inhibition at 10 µM (p38alpha kinase (h)): 0%; inhibition at 10 µM (CHK1 (h)): 0% | COc1ccc2[nH]nc(C(=O)NCC3CCN(CCC(=O)O)CC3)c2c1 [Compound 3]
2 | 0 | 14 | 0 | 0 | 3 | 17 | 58 | 4 | 18 | 0 | 28 | 4 | 77 | 0 | 84 | 3 | 2 | 0 | 92 | 47 | inhibition at 10 µM (FGFR1 kinase (h)): 8%; inhibition at 10 µM (Abl kinase (h)): 0%; inhibition at 10 µM (IGF1R kinase (h)): 3%; inhibition at 10 µM (PKA (h)): 0%; inhibition at 10 µM (IKKalpha (h)): 1%; inhibition at 10 µM (IRK (h) (InsR)): 9%; inhibition at 10 µM (ERK1 (h)): 66%; inhibition at 10 µM (CK1alpha (h)): 6%; % inhibition of control values (AMPKalpha): 68%; inhibition at 10 µM (CaMK4 (h)): 4%; inhibition at 10 µM (Ret kinase (h)): 0%; inhibition at 10 µM (p38alpha kinase (h)): 1%; inhibition at 10 µM (CHK1 (h)): 0% | COCCN1CCC(CNC(=O)c2n[nH]c3ccc(-c4cccc(F)c4F)cc23)CC1 [Compound 8, 5-(2,3-difluorophenyl)-N-{[1-(2-methoxyethyl)piperidin-4-yl]methyl}-1H-indazole-3-carboxamide]
